For assay [1], the target named is T1, human HSP60/10 (Homo sapiens, UniProt P10809).
T1 construct: octa-Histidine tag (TEV-cleavable) (N, cleaved yes); made in house; host or cells: HSP60 in E. coli Rosetta 2 (DE3); HSP10 in Rosetta 2 (DE3) pLysS
Briefly: HSP60/10-mediated dMDH refolding assay. Format: biochemical. How it is done:
Reagent preparation: For these assays, four primary reagent stocks were prepared: 1) GroEUES-dMDH or HSP60/10-dMDH binary complex stock; 2) ATP initiation stock; 3) EDTA quench stock; 4) MDH enzymatic assay stock. Denatured MDH (dMDH) was prepared by 2-fold dilution of MDH (5 mg/ml, soluble pig heart MDH from Roche, product #10127248001) with denaturant buffer (7 M guanidine-HCl, 200 mM Tris, pH 7.4, and 50 mM DTT). MDH was completely denatured by incubating at room temperature for 45 min. The binary complex solutions were prepared by slowly adding the dMDH stock to a stirring stock with GroEL (or HSP60) in folding buffer (50 mM Tris-HCl, pH 7.4, 50 mM KCl, 10 mM MgCl2, and 1 mM DTT), followed by addition of GroES (or HSP10). The binary complex stocks were prepared immediately prior to dispensing into the assay plates and had final protein concentrations of 83.3 nM GroEL (Mr 800 kDa) or HSP60 (Mr 400 kDa), 100 nM GroES or HSP10 (Mr 70 kDa), and 20 nM dMDH in folding buffer. For the ATP initiation stock, ATP solid was diluted into folding buffer to a final concentration of 2.5 mM. Quench solution contained 600 mM EDTA (pH 8.0). The MDH enzymatic assay stock consisted of 20 mM sodium mesoxalate and 2.4 mM NADH in reaction buffer (50 mM Tris-HCl, pH 7.4, 50 mM KCl, and 1 mM DTT).
Assay Protocol: First, 30 μL aliquots of the GroEL/ES-dMDH or HSP60/10-dMDH binary complex stocks were dispensed into clear, 384-well polystyrene plates. […] The chaperonin-mediated refolding cycles were initiated by addition of 20 μL of ATP stock (reagent concentrations during refolding cycle: 50 nM GroEL or HSP60, 60 nM GroES or HSP10, 12 nM dMDH, 1 mM ATP, and compounds of 100 μM to 46 nM, 3-fold dilution series). The refolding reactions were incubated at 37° C. […] Next, the assay was quenched by addition of 10 μL of the EDTA to final concentration of 100 mM. […] A340 nm measurements were recorded at 0.5 minutes (start point) and at successive time points until the amount of NADH consumed reached ˜90% (end point, generally between 20-35 minutes). The differences between the start and end point A340 values were used to calculate the % inhibition of the GroEL/ES or HSP60/10 machinery by the compounds. […] Results presented represent the averages of IC50 values obtained from at least quadriplicate (duplicate of duplicate) replicates.

For assay [2], the system named is Enterobacter cloacae (ATCC 13047). Nature of the assay: Bacterial proliferation assay, E. cloacae. The format is cell-based. The text has this:
(§1) Bacterial Strains: Enterococcus faecium—(Orla-Jensen) Schleifer and Kilpper-Balz strain NCTC 7171 (ATCC 19434); Drug sensitive Staphylococcus aureus—Rosenbranch strain Seattle 1945 (ATCC 25923); Methicillin resistant S. aureus (MRSA)—Rosenbach strain HPV107 (ATCC BAA-44); Klebsiella Pneumonia—(Schroeter) Trevisan strain NCTC 9633 (ATCC 13883); Acinetobacter baumannii—Bouvet and Grimont strain 2208 (ATCC 19606); Pseudomonas aeruginosa—(Schroeter) Migula strain NCTC 10332 (ATCC 10145); Enterobacter cloacae—E. cloacae, subsp. cloacae (Jordan) Hormaeche and Edwards strain CDC 442-68 (ATCC 13047).
(§2) Growth Media: All bacteria were grown in Brain Heart Infusion (BHI) broth/agar (Becton, Dickinson and Company). All liquid cultures were grown in BHI media supplemented with 25 mg/L Ca^2+ and 12.5 mg/L Mg^2+ to mimic free physiological concentrations of these cations. A 10 mg/mL Ca^2+ stock solution was prepared by dissolving 3.68 g of CaCl2.2H2O in 100 mL of deionized water, and a 10 mg/mL Mg^2+ stock solution was prepared by dissolving 8.36 g of MgCl2.6H2O in 100 mL deionized water. Both stock solutions were filter-sterilized using 0.2 μm pore size cellulose-acetate filters. 2.5 mL of the sterile 10 mg/mL Ca^2+ stock and 1.25 mL of the sterile 10 mg/mL Mg^2+ stock solutions were added per 1 L of autoclaved BHI medium to obtain 25 mg/L Ca^2+ and 12.5 mg/L Mg^2+ ions, respectively.
(§3) General Assay Protocol: Stock bacterial cultures were streaked onto BHI agar plates and grown overnight at 37° C. Fresh aliquots of broth were inoculated with single bacterial colonies and the cultures were grown overnight at 37° C. with shaking (240 rpm) in cation adjusted BHI media. The following morning, the overnight cultures were sub-cultured (1:5 dilution) into fresh aliquots of cation adjusted BHI media and grown at 37° C. for 1-2 hours with shaking. After 2 h, cultures were diluted into fresh media to achieve final OD600 readings of 0.017. Aliquots of these diluted cultures (30 μL) were added to clear, flat-bottom, 384-well polystyrene plates that were stamped with 0.5 μL of test compounds in 20 μL media. […] Plates were sealed with “Breathe Easy” oxygen permeable membranes (Diversified Biotech) and left to incubate at 37° C. without shaking (stagnant assay). OD600 nm readings were taken at either 6-8 h (S. aureus, MRSA, K. pneumonia, E. cloacae, and P. aeruginosa) or 24 h (E. faecium and A. baumannii). A second set of baseline control plates were prepared analogously, but without any bacteria added, to correct for possible compound absorbance and/or precipitation. Plates were then read at 600 nm using a Molecular Devices SpectraMax Plus384 microplate reader. […] Results presented represent the averages of EC50 values obtained from at quadriplicate (duplicate of duplicate) replicates.

The test system of assay [3] is Enterococcus faecium (ATCC 19434). Briefly: Bacterial proliferation assay, E. faecium. Format: cell-based.
From the text: as §1, §2, §3

The subject of assay [4] is Drug sensitive Staphylococcus aureus (ATCC 25923). Nature of the assay: Bacterial proliferation assay, drug sensitive S. aureus. Format: cell-based.
From the text: as §1, §2, §3

Assay [5] concerns Pseudomonas aeruginosa (ATCC 10145). Briefly: Bacterial proliferation assay, P. aeruginosa. Format: cell-based.
From the text: as §1, §2, §3

Where [6] appears, read: human HSP60/10-dMDH refolding assay, read-out: HSP60/10-dMDH Refolding IC50.
[7] abbreviates: log(IC50) ± standard deviation, human HSP60/10-dMDH refolding assay, read-out: HSP60/10-dMDH Refolding Assay log(IC50) (converted).
[8] abbreviates: ATCC13047, read-out: Bacterial Proliferation EC50 E. cloacae.
Setting [9] is: ATCC13047, read-out: log(EC50) Bacterial Proliferation Assay E. cloacae (converted).
Where [10] appears, read: ATCC19434, 24 h, read-out: Bacterial Proliferation EC50 E. faecium.
The mark [11] stands for this setting: ATCC19434, read-out: log(EC50) Bacterial Proliferation Assay C. faecium (converted).
The mark [12] stands for this setting: ATCC25923, read-out: Bacterial Proliferation EC50 S. aureus Sensitive.
Setting [13] is: ATCC25923, read-out: log(EC50) Bacterial Proliferation Assay S. aureus Sensitive (converted).
Where [14] appears, read: ATCC10145, read-out: Bacterial Proliferation EC50 P. aeruginosa.
The mark [15] stands for this setting: ATCC10145, read-out: log(EC50) Bacterial Proliferation Assay P. aeruginosa (converted).
Where [16] appears, read: ATCC13047, OD600 at 6-8 h, read-out: Bacterial Proliferation EC50 E. cloacae.
The mark [17] stands for this setting: ATCC13047, log of EC50 (μM scale), with standard deviation, read-out: log(EC50) Bacterial Proliferation Assay E. cloacae (converted).
Setting [18] is: ATCC19434, OD600 at 24 h, read-out: Bacterial Proliferation EC50 E. faecium.
Setting [19] is: ATCC19434, log of EC50 (μM scale), with standard deviation, read-out: log(EC50) Bacterial Proliferation Assay C. faecium (converted).
Setting [20] is: ATCC25923, OD600 at 6-8 h, read-out: Bacterial Proliferation EC50 S. aureus Sensitive.
The mark [21] stands for this setting: ATCC25923, log of EC50 (μM scale), with standard deviation, read-out: log(EC50) Bacterial Proliferation Assay S. aureus Sensitive (converted).
Setting [22] is: ATCC10145, OD600 at 6-8 h, read-out: Bacterial Proliferation EC50 P. aeruginosa.
[23] abbreviates: ATCC10145, log of EC50 (μM scale), with standard deviation, read-out: log(EC50) Bacterial Proliferation Assay P. aeruginosa (converted).

SMILES strings stand for the structures. Where two headings read alike, the source gives them in different places.

T1 sequence (P10809 27-573): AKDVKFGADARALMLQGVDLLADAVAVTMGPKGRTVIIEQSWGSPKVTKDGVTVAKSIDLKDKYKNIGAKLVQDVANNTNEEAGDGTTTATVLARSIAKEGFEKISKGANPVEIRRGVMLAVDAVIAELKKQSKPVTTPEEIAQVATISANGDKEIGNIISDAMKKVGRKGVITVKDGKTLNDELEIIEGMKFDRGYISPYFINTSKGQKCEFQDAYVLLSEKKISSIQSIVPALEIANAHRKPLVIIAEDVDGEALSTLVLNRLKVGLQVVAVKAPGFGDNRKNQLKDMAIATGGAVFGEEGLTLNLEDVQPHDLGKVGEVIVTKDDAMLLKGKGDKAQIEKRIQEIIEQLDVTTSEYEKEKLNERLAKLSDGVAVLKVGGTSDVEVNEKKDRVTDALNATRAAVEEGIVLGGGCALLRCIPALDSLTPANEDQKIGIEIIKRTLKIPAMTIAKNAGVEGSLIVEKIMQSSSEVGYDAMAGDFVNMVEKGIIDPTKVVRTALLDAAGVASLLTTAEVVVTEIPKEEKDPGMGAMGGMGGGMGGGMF

Regarding `O=C(Nc1ccc(Sc2nc3ccccc3s2)cc1)c1cccc(Br)c1O` [Compound 6, N-(4-(Benzo[d]thiazol-2-ylthio)phenyl)-3-bromo-2-hydroxybenzamide], the IC50 in assay [1] (setting [6]) was 26 µM; in assay [1] (setting [7]), 25.7 µM. The EC50 in assay [2] (setting [8]) is greater than 100 µM; in assay [2] (setting [9]), greater than 100 µM; in assay [3] (setting [10]) it was 11 µM; in assay [3] (setting [11]) it was 11.2 µM; in assay [4] (setting [12]), 0.76 µM; in assay [4] (setting [13]), 0.759 µM. Moreover, the EC50 in assay [5] (setting [14]) and in assay [5] (setting [15]) was greater than 100 µM in each case.

`O=C(Nc1ccccc1)c1ccccc1O` [Compound 16, 2-Hydroxy-N-phenylbenzamide]: the IC50 in assay [1] is greater than 100 µM. Also, the “HSP60/10-dMDH Refolding Assay log(IC50)” value in assay [1] (log(IC50) ± standard deviation, human HSP60/10-dMDH refolding assay) is greater than 2. In addition, the EC50 in assay [2] (setting [8]) was greater than 100 µM; in assay [2] (setting [9]) it was greater than 100 µM; in assay [3] (setting [10]) it was greater than 100 µM; in assay [3] (setting [11]) it was greater than 100 µM; in assay [4] (setting [12]) it was 28 µM; in assay [4] (setting [13]), 27.5 µM. Moreover, the EC50 in assay [5] (setting [14]) and in assay [5] (setting [15]) was greater than 100 µM each time.

Turning to `O=C(Nc1ccc(Sc2nc3ccccc3s2)c(Cl)c1)c1cc(Br)cc(Br)c1` [Compound 17, N-(4-(Benzo[d]thiazol-2-ylthio)-3-chlorophenyl)-3,5-dibromobenzamide], the IC50 in assay [1] (setting [6]) and in assay [1] (setting [7]) was greater than 100 µM throughout. The EC50 in assay [2] (setting [16]), in assay [2] (setting [17]), in assay [3] (setting [18]), in assay [3] (setting [19]), in assay [4] (setting [20]) and in assay [4] (setting [21]) was greater than 100 µM in each case. The EC50 in assay [5] (setting [22]) and in assay [5] (setting [23]) was greater than 100 µM each time.

For the compound `O=C(Nc1ccc(Sc2nc3ccccc3s2)cc1)c1cccc(Br)c1` [Compound 21, N-(4-(Benzo[d]thiazol-2-ylthio)phenyl)-3-bromobenzamide], the IC50 in assay [1] (setting [6]) and in assay [1] (setting [7]) was greater than 100 µM throughout. The EC50 in assay [2] (setting [16]), in assay [2] (setting [17]), in assay [3] (setting [18]), in assay [3] (setting [19]), in assay [4] (setting [20]) and in assay [4] (setting [21]) was greater than 100 µM throughout. Also, the EC50 in assay [5] (setting [22]) and in assay [5] (setting [23]) was greater than 100 µM in each case.

Take `COc1c(Br)cccc1C(=O)Nc1ccc(Sc2nc3ccccc3s2)c(Cl)c1` [Compound 30, N-(4-(Benzo[d]thiazol-2-ylthio)-3-chlorophenyl)-3-bromo-2-methoxybenzamide]: the IC50 in assay [1] (setting [6]) and in assay [1] (setting [7]) was greater than 100 µM each time. In addition, the EC50 in assay [2] (setting [16]), in assay [2] (setting [17]), in assay [3] (setting [18]), in assay [3] (setting [19]), in assay [4] (setting [20]) and in assay [4] (setting [21]) was greater than 100 µM in each case. The EC50 in assay [5] (setting [22]) and in assay [5] (setting [23]) was greater than 100 µM in each case.

As for `O=C(Nc1cccc(Cl)c1)c1cccc(Br)c1` [Compound 24, 3-Bromo-N-(3-chlorophenyl)benzamide], the IC50 in assay [1] (setting [6]) and in assay [1] (setting [7]) was greater than 100 µM throughout. Also, the EC50 in assay [2] (setting [16]) is greater than 100 µM; in assay [2] (setting [17]) it was greater than 100 µM; in assay [3] (setting [18]), greater than 100 µM; in assay [3] (setting [19]) it was greater than 100 µM; in assay [4] (setting [20]) it was 47 µM; in assay [4] (setting [21]), 46.8 µM. For the same compound, the EC50 in assay [5] (setting [22]) and in assay [5] (setting [23]) was greater than 100 µM throughout.

For the compound `O=C(Nc1ccc(Oc2ccc(Cl)cc2)c(Cl)c1)c1cc(I)cc(I)c1O` [Rafoxanide, rafoxanide, reference compound], the EC50 in assay [2] (setting [8]) was 40 µM; in assay [2] (setting [9]) it was 40.7 µM; in assay [3] (setting [10]) it was 0.99 µM; in assay [3] (setting [11]) it was 1 µM; in assay [4] (setting [12]), 0.32 µM; in assay [4] (setting [13]) it was 0.324 µM. Also, the EC50 in assay [5] (setting [14]) and in assay [5] (setting [15]) was greater than 100 µM throughout.

In the case of `Cc1cc(C(C#N)c2ccc(Cl)cc2)c(Cl)cc1NC(=O)c1cc(I)cc(I)c1O` (stereo not shown) [Closantel, closantel, reference compound], the EC50 in assay [2] (setting [8]) was greater than 100 µM; in assay [2] (setting [9]) it was greater than 100 µM; in assay [3] (setting [10]), 1.2 µM; in assay [3] (setting [11]), 1.23 µM; in assay [4] (setting [12]), 0.47 µM; in assay [4] (setting [13]) it was 0.468 µM. The EC50 in assay [5] (setting [14]) and in assay [5] (setting [15]) was greater than 100 µM throughout.
